Experimental data published in ChEMBL document CHEMBL3621173, “Evaluation of functional groups as acetyl-lysine mimetics for BET bromodomain inhibition” (Medchemcomm, 2014).
pIC50: −log10 of the molar value. Activity calls are given as the source filed them. The calls are words filed in the database; no cut-off is given here.

Key:
[1] = target: T1, Bromodomain-containing protein 3 (Homo sapiens, UniProt Q15059); experiment: Inhibition of BRD3 (D1) (unknown origin) at 5 uM incubated for 30 mins using histone H4 peptide (1-21) K5/8/12/16Ac-biotin by alpha screen assay
Target sequence in this assay (Q15059 2-726 limits assumed): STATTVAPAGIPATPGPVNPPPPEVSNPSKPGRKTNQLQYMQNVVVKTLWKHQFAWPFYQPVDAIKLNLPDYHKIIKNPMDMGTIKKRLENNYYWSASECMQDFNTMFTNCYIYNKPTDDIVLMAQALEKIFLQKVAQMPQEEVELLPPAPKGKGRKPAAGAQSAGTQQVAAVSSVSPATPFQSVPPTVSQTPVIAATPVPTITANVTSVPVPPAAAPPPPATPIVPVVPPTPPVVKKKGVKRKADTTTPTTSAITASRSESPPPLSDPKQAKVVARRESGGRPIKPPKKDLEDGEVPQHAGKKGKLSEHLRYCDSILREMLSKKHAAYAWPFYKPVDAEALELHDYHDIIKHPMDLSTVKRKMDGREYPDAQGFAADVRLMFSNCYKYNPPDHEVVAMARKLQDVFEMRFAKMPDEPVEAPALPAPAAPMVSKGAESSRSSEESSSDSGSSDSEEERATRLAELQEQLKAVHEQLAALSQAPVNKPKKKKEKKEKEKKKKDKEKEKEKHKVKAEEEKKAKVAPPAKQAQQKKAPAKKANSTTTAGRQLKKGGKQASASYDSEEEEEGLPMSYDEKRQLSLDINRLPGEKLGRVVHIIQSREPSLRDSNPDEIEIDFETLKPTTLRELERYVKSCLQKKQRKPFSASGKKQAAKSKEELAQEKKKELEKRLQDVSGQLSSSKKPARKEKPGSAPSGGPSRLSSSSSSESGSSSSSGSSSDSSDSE

[2] = target: T2, Bromodomain-containing protein 4 (Homo sapiens, UniProt O60885); experiment: Inhibition of BRD4 (D1) (unknown origin) at 5 uM incubated for 30 mins using histone H4 peptide (1-21) K5/8/12/16Ac-biotin by alpha screen assay
[3] = target: Bromodomain-containing protein 2 (Homo sapiens) (UniProt P25440); experiment: Inhibition of BRD2 (D1) (unknown origin) at 5 uM incubated for 30 mins using histone H4 peptide (1-21) K5/8/12/16Ac-biotin by alpha screen assay
Bromodomain-containing protein 2 (Homo sapiens), sequence (P25440 whole entry, looked up): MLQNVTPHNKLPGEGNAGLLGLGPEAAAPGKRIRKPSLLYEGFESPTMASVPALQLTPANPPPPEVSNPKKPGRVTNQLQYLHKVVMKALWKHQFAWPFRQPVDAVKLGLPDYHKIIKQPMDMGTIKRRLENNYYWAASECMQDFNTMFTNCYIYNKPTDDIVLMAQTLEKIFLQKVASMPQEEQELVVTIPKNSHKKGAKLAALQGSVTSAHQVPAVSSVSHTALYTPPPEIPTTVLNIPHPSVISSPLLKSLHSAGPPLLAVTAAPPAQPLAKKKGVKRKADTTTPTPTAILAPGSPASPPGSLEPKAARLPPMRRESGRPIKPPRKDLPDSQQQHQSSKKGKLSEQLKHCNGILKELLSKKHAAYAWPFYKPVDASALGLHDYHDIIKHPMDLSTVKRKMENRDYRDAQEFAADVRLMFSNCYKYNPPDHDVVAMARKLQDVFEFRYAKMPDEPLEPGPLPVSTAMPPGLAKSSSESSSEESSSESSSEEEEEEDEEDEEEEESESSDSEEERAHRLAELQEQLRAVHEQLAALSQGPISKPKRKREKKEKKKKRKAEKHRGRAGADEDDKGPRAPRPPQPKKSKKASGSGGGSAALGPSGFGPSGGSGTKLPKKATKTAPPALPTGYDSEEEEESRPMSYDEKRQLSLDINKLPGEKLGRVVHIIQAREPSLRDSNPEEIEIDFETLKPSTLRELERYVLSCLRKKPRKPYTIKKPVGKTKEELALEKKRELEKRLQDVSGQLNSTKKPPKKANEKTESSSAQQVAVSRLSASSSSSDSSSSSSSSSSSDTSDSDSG

[4] = target: T2, Bromodomain-containing protein 4; experiment: Inhibition of BRD4 (D1) (unknown origin) incubated for 30 mins using histone H4 peptide (1-21) K5/8/12/16Ac-biotin by alpha screen assay
[5] = target: T1, Bromodomain-containing protein 3; experiment: Inhibition of BRD3 (D1) (unknown origin) incubated for 30 mins using histone H4 peptide (1-21) K5/8/12/16Ac-biotin by alpha screen assay
Target sequence in this assay (Q15059 whole entry): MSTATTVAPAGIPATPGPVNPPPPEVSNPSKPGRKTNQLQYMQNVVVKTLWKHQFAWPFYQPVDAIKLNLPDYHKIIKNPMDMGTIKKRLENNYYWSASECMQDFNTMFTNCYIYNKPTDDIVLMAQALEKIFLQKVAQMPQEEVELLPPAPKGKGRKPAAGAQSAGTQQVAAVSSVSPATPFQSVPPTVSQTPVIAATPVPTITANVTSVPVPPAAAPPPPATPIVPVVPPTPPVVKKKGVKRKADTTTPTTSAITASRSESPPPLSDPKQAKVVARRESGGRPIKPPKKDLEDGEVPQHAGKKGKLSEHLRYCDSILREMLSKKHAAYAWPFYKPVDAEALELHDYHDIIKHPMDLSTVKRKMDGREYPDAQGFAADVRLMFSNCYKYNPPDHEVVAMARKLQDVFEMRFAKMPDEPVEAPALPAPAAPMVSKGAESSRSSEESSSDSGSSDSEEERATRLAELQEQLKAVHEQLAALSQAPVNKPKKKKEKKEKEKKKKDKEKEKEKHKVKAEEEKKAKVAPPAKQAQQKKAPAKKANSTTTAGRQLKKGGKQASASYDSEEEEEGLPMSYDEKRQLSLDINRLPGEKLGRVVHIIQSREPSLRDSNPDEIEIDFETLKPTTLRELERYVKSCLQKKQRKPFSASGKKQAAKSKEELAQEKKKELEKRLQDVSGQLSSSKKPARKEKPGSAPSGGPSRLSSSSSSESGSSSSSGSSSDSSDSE

[6] = Intrinsic clearance in human liver microsomes; type: ADME; conditions: read-out: CLH
[7] = Intrinsic clearance in mouse liver microsomes; type: ADME; conditions: read-out: CLH
[8] = Intrinsic clearance in rat liver microsomes; type: ADME; conditions: read-out: CLH
[9] = Degradation half-life in mouse liver microsomes; type: ADME
[10] = Degradation half-life in human liver microsomes; type: ADME
[11] = Degradation half-life in rat liver microsomes; type: ADME

COc1ccc(-c2cccc(N)c2C)cc1S(=O)(=O)NC1CCCC1
inhibition [1]: inactive
inhibition [2]: inactive
inhibition [3]: inactive

COc1ccc(-c2c(C)n[nH]c2C)cc1S(=O)(=O)NC1CCCC1
pIC50 [4]: 5.54
inhibition [1]: Active
inhibition [2]: Active
inhibition [3]: Active
pIC50 [5]: 5.88

Cc1nc(-c2ccc(C)c(S(=O)(=O)NC3CCCC3)c2)no1
inhibition [1]: inactive
inhibition [2]: inactive
inhibition [3]: inactive

COc1ccc(-c2cn(C)nn2)cc1S(=O)(=O)NC1CCCC1
inhibition [1]: inactive
inhibition [2]: inactive
inhibition [3]: inactive

COc1ccc(-c2cnc(N)nc2)cc1S(=O)(=O)NC1CCCC1
inhibition [1]: inactive
inhibition [2]: inactive
inhibition [3]: inactive

CC(=O)Nc1ccc(C)c(S(=O)(=O)NC2CCCC2)c1
inhibition [1]: inactive
inhibition [2]: inactive
inhibition [3]: inactive

Cc1sc2c(c1C)C(c1ccc(Cl)cc1)=N[C@@H](CC(=O)OC(C)(C)C)c1nnc(C)n1-2
microsomal CLint [6]: 136 µL/min/mg
microsomal CLint [7]: 166 µL/min/mg
microsomal CLint [8]: 129 µL/min/mg
half-life [9]: 0.117 h

COc1ccc(-c2ccsc2)cc1S(=O)(=O)NC1CCCC1
inhibition [1]: inactive
inhibition [2]: inactive
inhibition [3]: inactive

COc1ccc(-c2ccc(NC(C)=O)cc2)cc1S(=O)(=O)NC1CCCC1
inhibition [1]: inactive
inhibition [2]: inactive
inhibition [3]: inactive

Cc1ccc(NS(C)(=O)=O)cc1S(=O)(=O)NC1CCCC1
inhibition [1]: inactive
inhibition [2]: inactive
inhibition [3]: inactive

COc1ccc(-c2ccccc2NS(C)(=O)=O)cc1S(=O)(=O)NC1CCCC1
inhibition [1]: inactive
inhibition [2]: inactive
inhibition [3]: inactive

COc1ccc(-c2ccsc2C)cc1S(=O)(=O)NC1CCCC1
inhibition [1]: inactive
inhibition [2]: inactive
inhibition [3]: inactive

COc1ccc(-c2ccc(N)cc2C)cc1S(=O)(=O)NC1CCCC1
inhibition [1]: inactive
inhibition [2]: inactive
inhibition [3]: inactive

COc1ccc(-c2cc[n+]([O-])cc2)cc1S(=O)(=O)NC1CCCC1
inhibition [1]: inactive
inhibition [2]: inactive
inhibition [3]: inactive

COc1ccc(-c2ccc(N)[n+]([O-])c2C)cc1S(=O)(=O)NC1CCCC1
inhibition [1]: Active
inhibition [2]: Active

Cc1ccc(-n2cnnc2C)cc1S(=O)(=O)NC1CCCC1
pIC50 [4]: ≤ 5.00
inhibition [1]: inactive
inhibition [2]: inactive
inhibition [3]: inactive
pIC50 [5]: ≤ 5.00

Cc1ccc(-c2nnnn2C)cc1S(=O)(=O)NC1CCCC1
inhibition [1]: inactive
inhibition [2]: inactive
inhibition [3]: inactive

COc1ccc(-c2cccnc2)cc1S(=O)(=O)NC1CCCC1
inhibition [1]: inactive
inhibition [2]: inactive
inhibition [3]: inactive

COc1ccc(-c2cn[nH]c2)cc1S(=O)(=O)NC1CCCC1
inhibition [1]: inactive
inhibition [2]: inactive
inhibition [3]: inactive

Cc1ccc(-c2nnn(C)n2)cc1S(=O)(=O)NC1CCCC1
inhibition [1]: inactive
inhibition [2]: inactive
inhibition [3]: inactive

COc1ccc(-c2cccc(NC(C)=O)c2)cc1S(=O)(=O)NC1CCCC1
inhibition [1]: inactive
inhibition [2]: inactive
inhibition [3]: inactive

COc1ccc(-c2c(C)noc2C)cc1S(=O)(=O)NC1CCCC1
pIC50 [4]: 5.92
inhibition [1]: Active
inhibition [2]: Active
inhibition [3]: Active
pIC50 [5]: 6.70

Cc1ccc(-n2c(C)nnc2C)cc1S(=O)(=O)NC1CCCC1
pIC50 [4]: ≤ 5.00
microsomal CLint [6]: 10 µL/min/mg
half-life [10]: 2.88 h
microsomal CLint [7]: 20 µL/min/mg
inhibition [1]: inactive
inhibition [2]: inactive
half-life [11]: 1.78 h
inhibition [3]: inactive
microsomal CLint [8]: 16 µL/min/mg
half-life [9]: 1.42 h
pIC50 [5]: ≤ 5.00

Cc1ccc(-c2c(C)noc2C)cc1S(=O)(=O)NC1CCCC1
microsomal CLint [6]: 246 µL/min/mg
half-life [10]: 0.117 h
microsomal CLint [7]: 461 µL/min/mg
inhibition [1]: Active
inhibition [2]: Active
half-life [11]: 0.0333 h
inhibition [3]: Active
microsomal CLint [8]: 711 µL/min/mg
half-life [9]: 0.0667 h

COc1ccc(-c2cnn(C)n2)cc1S(=O)(=O)NC1CCCC1
pIC50 [4]: 5.40
inhibition [2]: Active
pIC50 [5]: 5.00

COc1ccc(-c2cc(N)ccc2C)cc1S(=O)(=O)NC1CCCC1
inhibition [1]: inactive
inhibition [2]: inactive
inhibition [3]: inactive

COc1ccc(-c2ccnn2C)cc1S(=O)(=O)NC1CCCC1
pIC50 [4]: 4.99
inhibition [1]: Active
inhibition [2]: Active
inhibition [3]: Active
pIC50 [5]: 5.77

COc1ccc(-c2c(C)nn(C)c2C)cc1S(=O)(=O)NC1CCCC1
inhibition [1]: inactive
inhibition [2]: inactive
inhibition [3]: inactive

COc1ccc(-c2ccncc2)cc1S(=O)(=O)NC1CCCC1
inhibition [1]: inactive
inhibition [2]: inactive
inhibition [3]: inactive

CC(=O)NCc1ccc(C)c(S(=O)(=O)NC2CCCC2)c1
inhibition [1]: inactive
inhibition [2]: inactive
inhibition [3]: inactive

COc1ccc(-c2ccc(N)nc2)cc1S(=O)(=O)NC1CCCC1
inhibition [1]: inactive
inhibition [2]: inactive
inhibition [3]: inactive

COc1cc2c(cc1-c1c(C)noc1C)ncc1[nH]c(=O)n([C@H](C)c3ccccn3)c12
microsomal CLint [6]: 7 µL/min/mg
half-life [10]: 3.9 h
microsomal CLint [7]: < 7 µL/min/mg
half-life [11]: 3.45 h
microsomal CLint [8]: 8 µL/min/mg
half-life [9]: > 4.12 h

COc1ccc(-c2ccc(N)nc2C)cc1S(=O)(=O)NC1CCCC1
inhibition [1]: Active
inhibition [2]: Active
inhibition [3]: Active
